Experimental data taken from patent US20220304918A1, “Oral Compositions Comprising Hops And Sweeteners” (The Proctor & Gamble Company, priority 2021, published 2022).
Where a SMILES comes first, the peptide text is derived from it.

Assay: Peak sweetness intensity perception relative to sucrose (potency-normalized comparison)
Set-up: key: Quick: display a peak sweetness intensity faster than that experienced for sucrose; Slow: display a peak sweetness intensity slower than that experienced for sucrose
Conditions: sucrose as reference
Source text: The sweeteners listed in TABLE 1 have been categorized with respect to their peak sweetness intensity perception relative to sucrose as either quick or slow. Those sweeteners that have been categorized as “quick” display a peak sweetness intensity faster than that experienced for sucrose. Those sweeteners that have been categorized as “slow” display a peak sweetness intensity slower than that experienced for sucrose. Comparisons of peak sweetness intensity are made using potency-normalized comparisons to account for the different amounts of each ingredient to experience the same absolute peak sweetness.

| Compound | Onset Speed Relative to Sucrose |
| --- | --- |
| CC1=CC(=O)NS(=O)(=O)O1 [Acesulfame K] | Quick |
| COC(=O)[C@H](Cc1ccccc1)NC(=O)[C@@H](N)CC(=O)O [Aspartame] (H-Asp-Phe-OMe) | Slow |
| OC[C@@H](O)[C@@H](O)CO [Erythritol] | Quick |
| COC(=O)[C@H](Cc1ccccc1)NC(=O)[C@H](CC(=O)O)NCCC(C)(C)C [Neotame] | Slow |
| O=C1NS(=O)(=O)c2ccccc21 [Saccharin] | Quick |
| OC[C@@H](O)[C@@H](O)[C@H](O)[C@@H](O)CO [Sorbitol] | Quick |
| OC[C@H]1O[C@H](O[C@]2(CCl)O[C@H](CCl)[C@@H](O)[C@@H]2O)[C@H](O)[C@@H](O)[C@H]1Cl [Sucralose] | Slow |
| OC[C@@H](O)[C@H](O)[C@@H](O)CO [Xylitol] | Quick |
| Steviosides | Slow |
